Assay [1] concerns mdx mice. Description: Histopathological evaluation of severity of myodystrophy in mdx mice. It counts as in vivo, mouse (C57BL/10ScSn-Dmd^mdx/J). The conditions noted are these: T16. The method, then: In these experiments, the histopathological evaluation of muscle inflammatory infiltrate, adipose tissue deposition, regeneration, and degeneration of the muscular tissue was also performed. The severity of myodystrophy in the different muscles (TA, GAS and DIA) was quantified through a weighted histopathological method that considered some parameters scored by severity and extension of the injury: muscle degeneration/necrosis, regeneration, inflammatory infiltrate, interstitial reaction, and adipose tissue deposition. Each parameter was classified by severity (mild = 1, moderate = 2, and severe = 3) and extension (focal = 1, multifocal = 2, and diffuse = 3). The individual severity score was calculated for each animal and an average score per group was calculated.

The subject of assay [2] is mdx mice. Description: Muscle fibrosis by Sirius Red staining in mdx mice. The assay is classed as in vivo, mouse (C57BL/10ScSn-Dmd^mdx/J). From the text:
Tibialis anterior (TA), gastrocnemius (GAS), DIA, and heart were collected from mice maintained under isoflurane anesthesia and sacrificed by cervical dislocation. These muscles were collected from C57BL/10J wt and mdx (5 mice/group) at the end of treatments and from DBA/2J wt and D2.B10 mice (5 mice/group) at two different time points to be examined by a pathologist (for more details see Additional Table 1). Due to the results obtained by the functional tests, muscles from only some treatment groups were analyzed in both DMD models (see Additional Table 1). All the collected muscles were fixed in 10% buffered formalin solution (Bio-optica, Milan, Italy) at + 4 °C for at least 48 h. After fixation, muscular samples were transversely trimmed, caged, and paraffin embedded overnight with an Automated Vacuum Tissue Processor Floor (ETP, Histo-Line Laboratories) and included in paraffin blocks. Serial transverse cross-sections (4 μm thick) were cut with a microtome (Leica RM 2255), collected onto uncoated glass slides, and stained using a standard protocol for hematoxylin and eosin (Mayer hematoxylin & Aqueous G Eosin 1%, Bio-Optica) and Sirius Red staining (Direct Red 80, Sigma-Aldrich). For the image analysis and quantitation, hematoxylin and eosin- and Sirius Red-stained slides were examined with an Olympus BX51 light microscope. From each sample, 1 to 3 random microphotographs at the magnification of × 4 and × 10 (TA, GAS and heart) or × 20 (DIA) were collected using Image-Pro Plus system. The digital images were processed by a pathologist using ImageJ software (U.S. National Institutes of Health, Bethesda, MD, USA). To quantify CSA and centralized nuclei (%) on hematoxylin and eosin-stained sections, one hundred myofibers were manually measured for each muscle/mouse using a tablet pen (Wacom Intruos) and analyzed by the ImageJ software after a linear calibration of 150 μm. The fibrotic area, corresponding to the area stained in red, was compared to the total area of the tissue section, and the results were expressed as percentage fibrosis. The % of fibrosis of muscles in the different treatment groups was expressed by averaging the three values obtained from each muscle.

The test system of assay [3] is murine models of diastolic dysfunction. On the set-up: method as in PMID 29437146. Particulars: drug admixed to the diet; cited from earlier work.

Molecules are shown by their SMILES.

This is an account of results in paper PMC8296708, “The pan HDAC inhibitor Givinostat improves muscle function and histological parameters in two Duchenne muscular dystrophy murine models expressing different haplotypes of the LTBP4 gene” (Skeletal Muscle, 2021).

Consider `CCN(CC)Cc1ccc2cc(COC(=O)Nc3ccc(C(=O)NO)cc3)ccc2c1` [Givinostat], for which the “Histological evaluation of inflammatory infiltrate, adipose tissue deposition, regeneration, degeneration” value in assay [1] is “not significantly different among the treatment groups”. The “Reduction of fibrosis in GAS” value in assay [2] (10 and 37.5 mg/kg, T16, vs vehicle) is “about 30%”. The “Effect on fibrosis in TA” value in assay [2] (T16, doses 1, 10, 37.5 mg/kg analyzed) is given as “observed only at the dose of 37.5 mg/kg”. The “Reduction of fibrosis in DIA” value in assay [2] (all 3 analyzed doses (1, 10, 37.5 mg/kg), T16) is on record as “about 40%”. Also, the “Effect on fibrosis in heart” value in assay [2] (all 3 doses analyzed, T16, vs vehicle) is “the effect was not significant”. Further, the “Efficacy in two murine models of diastolic dysfunction with preserved ejection fraction” value in assay [3] is recorded as “highly efficacious”.
